Data from patent publication US9784740B2 (priority 2013, dated 2017).
Values joined by “and” are separate entries in the source; they are usually repeats but may differ in a detail not shown here. Identical values can stand only once. “Also recorded” adds a separate entry of the source. Like-named read-outs stand apart in the source and are kept apart here.

Columns and labels:
[1] = target: T1, mu-opioid receptor (OPRM1) (Homo sapiens, UniProt P35372); assay: β-arrestin recruitment assay (PathHunter) in U2OS-OPRM1 cells; conditions: for Description (PAM efficacy class / SAM): U2OS-OPRM1, β-arrestin PAM and SAM detection modes; for β-arrestin recruitment, agonist detection mode (compound alone): U2OS-OPRM1 cells, no orthosteric agonist
[2] = target: T1, mu-opioid receptor (OPRM1); assay: cell-based
[3] = target: T2, mu-opioid receptor (C6mu membranes) (Rattus norvegicus, UniProt P33535); assay: [35S]GTPγS binding in C6mu cell membranes; assay type: biochemical; conditions: for agonist activity of modulator in [35S]GTPγS binding: modulator alone
T2 construct: expressed in transfected cells; host or cells: C6 glioma cells (membranes)

[4] = target: T3, delta opioid receptor (OPRD1) (Homo sapiens, UniProt P41143); assay: β-arrestin recruitment assay (PathHunter) in U2OS-OPRD1 cells; assay type: cell-based; conditions: for β-arrestin recruitment, agonist detection mode: U2OS-OPRD1, no leu-enkephalin; for β-arrestin recruitment, PAM detection mode: U2OS-OPRD1, ~EC10 (0.4 nM) leu-enkephalin
T3 construct: host or cells: U2OS (PathHunter U2OS-OPRD1)

[5] = target: T2, mu-opioid receptor (C6mu membranes); assay type: binding
[6] = target: T2, mu-opioid receptor (C6mu membranes); assay: DAMGO competition binding with [3H]diprenorphine in C6mu membranes; conditions: 10 uM modulator
[7] = target: T4, mu-opioid receptor (mouse brain membranes) (Mus musculus, UniProt P42866); assay: [35S]GTPγS binding in mouse brain membranes; assay type: biochemical
T4 construct: membranes from a physiologically relevant tissue with endogenous levels of receptor and G-protein; from tissue; host or cells: mouse whole brain minus cerebellum, membrane homogenate

[8] = target: T5, human mu opioid receptors (Homo sapiens, UniProt P35372); assay: Inhibition of forskolin-stimulated cAMP accumulation in CHO-mu cells; conditions: for EC50: mean (95% CI)
[9] = target: T1, mu-opioid receptor (OPRM1)
[10] = target: T5, human mu opioid receptors; assay: cell-based
[11] = target: T5, human mu opioid receptors
[12] = C6mu membranes, 10 uM modulator

T3 sequence (P41143 whole entry): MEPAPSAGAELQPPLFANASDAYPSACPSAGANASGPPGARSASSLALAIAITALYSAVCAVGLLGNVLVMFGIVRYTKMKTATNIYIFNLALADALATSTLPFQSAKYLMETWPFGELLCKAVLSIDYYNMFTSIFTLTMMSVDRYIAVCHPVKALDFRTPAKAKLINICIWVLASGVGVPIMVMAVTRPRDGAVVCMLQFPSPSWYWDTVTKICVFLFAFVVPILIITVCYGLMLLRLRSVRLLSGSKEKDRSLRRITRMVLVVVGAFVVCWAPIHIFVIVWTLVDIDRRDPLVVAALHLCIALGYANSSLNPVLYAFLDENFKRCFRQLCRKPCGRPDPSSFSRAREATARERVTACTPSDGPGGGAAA
T4 sequence (P42866 whole entry): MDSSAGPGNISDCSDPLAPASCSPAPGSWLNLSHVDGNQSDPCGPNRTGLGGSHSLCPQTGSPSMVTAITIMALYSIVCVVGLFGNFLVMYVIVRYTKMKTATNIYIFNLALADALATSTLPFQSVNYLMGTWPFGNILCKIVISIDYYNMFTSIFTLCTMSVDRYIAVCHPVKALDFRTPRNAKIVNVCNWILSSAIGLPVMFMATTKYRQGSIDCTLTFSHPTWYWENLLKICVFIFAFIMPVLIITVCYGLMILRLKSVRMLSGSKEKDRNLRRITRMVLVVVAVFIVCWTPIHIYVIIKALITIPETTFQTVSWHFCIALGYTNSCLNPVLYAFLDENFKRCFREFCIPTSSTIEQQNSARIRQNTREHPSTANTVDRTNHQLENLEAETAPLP
T1 sequence (P35372 whole entry): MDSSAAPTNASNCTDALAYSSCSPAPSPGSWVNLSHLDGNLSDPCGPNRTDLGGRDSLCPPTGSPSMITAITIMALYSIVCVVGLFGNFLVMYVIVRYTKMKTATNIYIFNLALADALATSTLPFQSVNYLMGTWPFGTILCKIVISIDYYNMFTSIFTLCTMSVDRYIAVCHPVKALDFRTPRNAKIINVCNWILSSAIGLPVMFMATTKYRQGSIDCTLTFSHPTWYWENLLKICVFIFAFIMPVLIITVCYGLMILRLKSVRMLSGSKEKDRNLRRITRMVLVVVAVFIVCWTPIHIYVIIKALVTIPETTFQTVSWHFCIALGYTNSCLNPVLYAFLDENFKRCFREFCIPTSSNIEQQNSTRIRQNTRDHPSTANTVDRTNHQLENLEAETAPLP
T5 sequence (P35372 whole entry): as above
T2 sequence (P33535 whole entry): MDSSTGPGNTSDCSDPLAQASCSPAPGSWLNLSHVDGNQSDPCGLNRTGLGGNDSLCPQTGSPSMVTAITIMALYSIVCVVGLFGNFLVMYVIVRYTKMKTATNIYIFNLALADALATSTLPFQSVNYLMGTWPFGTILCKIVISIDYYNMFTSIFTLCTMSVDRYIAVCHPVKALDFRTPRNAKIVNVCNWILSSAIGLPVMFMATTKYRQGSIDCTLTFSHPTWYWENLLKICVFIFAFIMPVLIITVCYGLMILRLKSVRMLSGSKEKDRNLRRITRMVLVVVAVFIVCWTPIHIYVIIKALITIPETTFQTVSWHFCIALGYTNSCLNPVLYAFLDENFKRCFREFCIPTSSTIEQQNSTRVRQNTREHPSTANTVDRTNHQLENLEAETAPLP

## COc1ccc(C2SCCN2S(=O)(=O)c2ccc(OC)cc2)cc1 (stereo not drawn) [Analog 15]
[1]
  Description (PAM efficacy class / SAM): Weak PAM
[2]
  EC50: 37 µM

## COc1ccc(C2SCCN2S(=O)(=O)c2ccccc2)cc1 (stereo not drawn) [Analog 10]
[1]
  Description (PAM efficacy class / SAM): Weak PAM
[2]
  EC50: 23 µM

## COc1ccc(C2SCCN2S(=O)(=O)c2ccc(Br)cc2)cc1 (stereo not drawn) [Analog 9]
[1]
  Description (PAM efficacy class / SAM): Moderate PAM
[2]
  EC50: 7 µM

## O=S(=O)(c1ccc(Cl)cc1)N1CCSC1c1cccc(Cl)c1 (stereo not drawn) [Analog 11]
[1]
  Description (PAM efficacy class / SAM): Strong PAM
[2]
  EC50: 5 µM

## COc1ccc(C2SCCN2S(=O)(=O)c2ccc(Br)cc2)cc1[N+](=O)[O-] (stereo not drawn) [Analog 6]
[1]
  Description (PAM efficacy class / SAM): Moderate PAM
[2]
  EC50: 2 µM

## COc1ccc(S(=O)(=O)N2CCSC2c2ccc(Br)cc2)cc1 (stereo not drawn) [Analog 14]
[1]
  Description (PAM efficacy class / SAM): Weak PAM
[2]
  EC50: 7 µM

## COc1ccc(C2SCCN2S(=O)(=O)c2ccc(C)cc2)cc1Br (stereo not drawn) [Analog 2]
[1]
  Description (PAM efficacy class / SAM): Weak PAM
[2]
  EC50: 4 µM

## C[C@@H](NC(=O)[C@@H](N)Cc1ccc(O)cc1)C(=O)NCC(=O)N(C)[C@@H](Cc1ccccc1)C(=O)NCCO [DAMGO, reference compound]
[3]; C6mu membranes, 10 uM DAMGO, 5 min
  stimulation of [35S]GTPγS binding above basal activity: 250%
[3]; read-out: maximal stimulation by DAMGO, control
  Emax: 232%

## COc1ccc(C2SCCN2S(=O)(=O)c2ccc([N+](=O)[O-])cc2)cc1Br (stereo not drawn) [Analog 1]
[1]
  Description (PAM efficacy class / SAM): Moderate PAM
[2]
  EC50: 2 µM

## COc1ccc(C2SCCN2S(=O)(=O)c2cccc(C)c2)cc1Br (stereo not drawn) [Analog 4]
[1]
  Description (PAM efficacy class / SAM): Weak PAM
[2]
  EC50: 9 µM

## COc1ccc(C2SCCN2S(=O)(=O)c2ccc(Cl)cc2)cc1Br (stereo not drawn) [BMS-986122]
[4]
  β-arrestin recruitment, agonist detection mode: Neither compound had any significant effect
  β-arrestin recruitment, PAM detection mode: Neither compound had any significant effect
[5]
  effect on [3H]diprenorphine binding affinity: no significant effect; also recorded: did not affect; also recorded: had no effect
[1]
  Description (PAM efficacy class / SAM): Full PAM (ref)
  β-arrestin recruitment, agonist detection mode (compound alone): Neither BMS-986121 nor BMS-986122 produced significant β-arrestin recruitment on their own
[6]
  increase in the affinity of DAMGO: 6 fold
[2]
  EC50: 3 µM and 4.9 µM
[7]
  agonist activity of modulator: No agonist activity was observed
[7]; 10 uM modulator
  leftward shift in DAMGO potency: 4.5 fold
[7]; 10 uM modulator, basal 4.8±0.4 fmol bound/mg protein
  effect on basal [35S]GTPγS binding: not affected
[8]; EC50 of agonist activity (agonist detection mode), CHO-mu, no orthosteric agonist
  EC50: 41 µM
[8]; read-out: Emax of agonist activity (agonist detection mode)
  Emax: 60%
[3]; [12]
  effect of modulator on maximal stimulation by DAMGO: not affected
  increase in morphine potency: 3 fold
  leftward shift in DAMGO CRC (potency): 8 fold and 7 fold
[3]; C6mu membranes
  agonist activity of modulator in [35S]GTPγS binding: No significant agonist activity was detected
[9]
  Emax: 79%
[10]
  EC50: 8.9 µM

## endomorphin-I [reference compound]
[8]; CHO-mu, 1 uM forskolin
  reduction in forskolin-stimulated cAMP accumulation: 17 fold
[8]; cAMP inhibition vs β-arrestin recruitment
  potency in cAMP assay (CHO) relative to arrestin recruitment (U2OS PathHunter): ~1000 fold

## O=S(=O)(c1ccc(Cl)cc1)N1CCSC1c1ccc(Br)cc1 (stereo not drawn) [Analog 12]
[1]
  Description (PAM efficacy class / SAM): Weak PAM
[2]
  EC50: 6 µM

## COc1ccc(S(=O)(=O)N2CCSC2c2ccc(OC)c(Br)c2)cc1 (stereo not drawn) [Analog 3]
[1]
  Description (PAM efficacy class / SAM): Weak PAM
[2]
  EC50: 6 µM

## COc1cc(Br)ccc1C1SCCN1S(=O)(=O)c1ccc(Cl)cc1 (racemic) [BMS-986124]
[4]
  β-arrestin recruitment, agonist detection mode: no activity
  β-arrestin recruitment, PAM detection mode: no activity
[1]; U2OS-OPRM1, 300 nM endomorphin-I
  antagonist/NAM detection mode: effect on EC80 endomorphin-I response: no significant effect; also recorded: Neither compound significantly inhibited; also recorded: no NAM/antagonist activity
[1]; U2OS-OPRM1, 12.5 uM (~EC80) BMS-986122 plus 30 nM (~EC20) endomorphin-I
  SAM detection mode: inhibition of BMS-986122 PAM response: able to inhibit the PAM response; also recorded: inhibited PAM responses
[1]
  Description (PAM efficacy class / SAM): SAM
  β-arrestin recruitment, agonist detection mode (compound alone): no activity
[1]; read-out: β-arrestin SAM Detection Mode (Kb), U2OS-OPRM1, inhibition of BMS-986122 (~EC80) response with ~EC20 endomorphin-I, Kb calculated from IC50
  Kb: 2 µM
[3]; [12]
  effect on DAMGO potency in [35S]GTPγS assay: not significantly increased
  effect on morphine Emax in [35S]GTPγS assay: increased morphine Emax to a small degree
  effect on morphine potency in [35S]GTPγS assay: not significantly increased
[3]; C6mu membranes, 50 uM BMS-986124 alone
  effect on DAMGO-stimulated [35S]GTPγS binding potency: not affected
[3]; C6mu membranes
  agonist activity of modulator in [35S]GTPγS binding: No significant agonist activity was detected

## O=[N+]([O-])c1ccc(-c2csc(=Nc3c(Cl)cccc3Cl)[nH]2)cc1 [BMS-986121]
[4]
  β-arrestin recruitment, agonist detection mode: Neither compound had any significant effect
  β-arrestin recruitment, PAM detection mode: Neither compound had any significant effect
[1]
  β-arrestin recruitment, agonist detection mode (compound alone): Neither BMS-986121 nor BMS-986122 produced significant β-arrestin recruitment on their own
[8]; CHO-mu, 100 uM modulator
  leftward shift in potency of endomorphin-I: 4 fold and 4.3 fold
  leftward shift in potency of leu-enkephalin: 4.5 fold
  leftward shift in potency of morphine: 6.5 fold
[8]; CHO-mu, no orthosteric agonist, 100% = 10 nM endomorphin-I
  Emax of agonist activity (agonist detection mode): 35 (6-63) %
[8]; read-out: EC50 of agonist activity (agonist detection mode), CHO-mu, no orthosteric agonist
  EC50: 14 µM
[3]; [12]
  effect of modulator on maximal stimulation by DAMGO: not affected
  increase in morphine potency: 2.5 fold
  leftward shift in DAMGO CRC (potency): 4 fold
[3]; C6mu membranes
  agonist activity of modulator in [35S]GTPγS binding: No significant agonist activity was detected
[9]
  EC50: 1 µM and 1.7 µM
  Emax: 72%
[11]
  EC50: 2.2 µM

## COc1ccc(C2SCCN2S(=O)(=O)c2ccc(Cl)cc2)cc1[N+](=O)[O-] (stereo not drawn) [Analog 5]
[1]
  Description (PAM efficacy class / SAM): Moderate PAM
[2]
  EC50: 4 µM

## COc1ccc(C2SCCN2S(=O)(=O)c2ccc(Br)cc2)cc1OC (racemic) [Analog 8]
[1]
  Description (PAM efficacy class / SAM): Weak PAM
[9]
  EC50: 14 µM
